We go through one compound from patent EP1691802B1, “METHODS FOR THE AMELIORATION OF ENVIRONMENTAL OXIDANT STRESS AND THE REGULATION OF BENEFICIAL GENES” (The Ester C Company, priority 2003, dated 2005).

The series has as its system white blood cells. The arrangement: species or system human. The note with it: in vivo, po. How it is done:
Three vitamin C preparations and a placebo were tested to determine white blood cell bioavailability and pharmacokinetics in a double-blind, randomized, crossover study in human subjects. The three vitamin C and placebo compositions were • "Test A": ascorbic acid USP • "Test B": a mineral ascorbate (calcium ascorbate) + vitamin C metabolites (principally calcium threonate), in which the metabolites are produced in situ by a process such as disclosed in US Patent 4,822,816 • "Test C": a mineral ascorbate (calcium ascorbate) + vitamin C metabolites (calcium threonate), manufactured by adding calcium threonate to calcium ascorbate. • "Test D": placebo All three vitamin C compositions were standardized to 1000mg vitamin C equivalent per dose tablets.
A total of 15 subjects (all male between the ages of 21 and 50) were divided into three groups of five and were entered into a four-way crossover design study to minimize inter-subject variability, i.e., in which the subjects act as their own controls. […]
Vitamin C levels of the urine, plasma and white blood cells were determined by HPLC. The areas under the curve (AUC) for the ascorbic acid levels detected in white cells, plasma and urine was determined for each group using the trapezoidal rule (Selby, 1979). The data and the standard deviation was analyzed using repeated-measures analysis of variance ([…]). […]

Turning to `O=C1O[C@H]([C@@H](O)CO)C(O)=C1O` [Test A, ascorbic acid], the “levels of white cell vitamin C in smokers” value was “lowest levels”.
